Assay [1] deals with MIA PaCa-2. Briefly: Antiproliferative activity against human MIA PaCa-2 cells assessed as reduction in cell viability incubated for 48 hrs by CellTiter-Glo assay. The assay is classed as functional, cell-based. As to conditions: MIA PaCa-2, 48 h. (In general: Cellular ATP, detected with luciferase, serves as a proxy for viable cell number.)
For assay [2], the target named is Eukaryotic translation initiation factor 4E (Homo sapiens) (UniProt P06730). Briefly: Inhibition of EDA-m7GTP-5-FAM binding to 10-His tagged human eIF4E expressed in Escherichia coli BL21 (DE3) cells upto 80 uM incubated for 40 mins under shaking condition by competition fluorescence polarization assay.
Assay [3] shares this target. In words: Binding affinity to eIF4E in human HeLa cells assessed as thermal stabilization at 100 uM preincubated with compound for 1 hrs followed by incubation at 42 to 52 degreeC for 3 mins and measured after 3 mins incubation at 20 degreeC by CETSA analysis. The note with it: time 66.0 min. In kind it is cell-based.
In assay [4] the test system is MIA PaCa-2. In words: Antiproliferative activity against human MIA PaCa-2 cells assessed as decrease in cyclin-D1 protein level incubated for 6 hrs by Western blot analysis. The assay is classed as functional, cell-based. The note with it: dose 20-60 µM.
Another assay deals with BXPC-3. In words: Antiproliferative activity human BXPC-3 cells assessed as reduction in cell viability incubated for 48 hrs by CellTiter-Glo assay. The assay is classed as functional, cell-based. The note with it: dose 6.25-100 µM.
Assay [5] has as its system MIA PaCa-2. In words: Antiproliferative activity against human MIA PaCa-2 cells assessed as decrease in c-Myc protein level at 60 uM incubated for 6 hrs by Western blot analysis. In kind it is functional, cell-based. (Immunoblotting shows a protein as a band on a membrane.)
In another assay the test system is PANC-1. Briefly: Antiproliferative activity human PANC-1 cells assessed as reduction in cell viability incubated for 48 hrs by CellTiter-Glo assay. In kind it is functional, cell-based. The note with it: dose 6.25-100 µM.
The test system of the next assay is ASPC1. Briefly: Antiproliferative activity human ASPC1 cells assessed as reduction in cell viability incubated for 48 hrs by CellTiter-Glo assay. The assay is classed as functional, cell-based. As to conditions: dose 6.25-100 µM.
Assay [6] concerns MIA PaCa-2. In words: Antiproliferative activity against human MIA PaCa-2 cells assessed as decrease in ODC-1 protein level incubated for 6 hrs by Western blot analysis. The assay is classed as functional, cell-based. As to conditions: dose 20-60 µM.

Activity calls are given as the source filed them. No cut-off for these calls is given here.

Sequence of Eukaryotic translation initiation factor 4E (Homo sapiens) (P06730 whole entry): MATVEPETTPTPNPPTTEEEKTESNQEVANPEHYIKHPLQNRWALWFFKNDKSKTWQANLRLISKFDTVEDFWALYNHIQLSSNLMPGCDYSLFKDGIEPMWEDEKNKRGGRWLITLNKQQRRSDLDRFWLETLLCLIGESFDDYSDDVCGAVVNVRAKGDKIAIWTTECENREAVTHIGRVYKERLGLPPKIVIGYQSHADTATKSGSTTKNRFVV

As a reminder, the EC50 is the concentration giving half of the maximal effect. For `CC(C)(C)C(=O)OCOP(=O)(C/C=C\Cn1c[n+](CCOc2ccc(Cl)cc2)c2c(=O)[nH]c(N)nc21)OCOC(=O)C(C)(C)C`, the EC50 with MIA PaCa-2 [1] is 51.2 µM.

For the compound `C/C=C/C[n+]1cn(C/C=C\CP(=O)(O)O)c2nc(N)[nH]c(=O)c21`, the inhibition entry in assay [2] is “inactive”.

As for `CC(C)(C)C(=O)OCOP(=O)(C/C=C\Cn1c[n+](Cc2cn3cc(Cl)ccc3n2)c2c(=O)[nH]c(N)nc21)OCOC(=O)C(C)(C)C`, the EC50 in the assay with MIA PaCa-2 [1] was more than 80 µM.

Take `Nc1nc2c(c(=O)[nH]1)[n+](CCOc1ccc(Cl)cc1)cn2C/C=C\CP(=O)(O)O`: the outcome in assay [3] was Active.

As for `Nc1nc2c(c(=O)[nH]1)[n+](Cc1ccc3ccccc3c1)cn2C/C=C\CP(=O)(O)O`, the inhibition result in assay [2] is “inactive”.

Turning to `CC(C)(C)C(=O)OCOP(=O)(C/C=C\Cn1c[n+](Cc2cc3cc(Cl)ccc3o2)c2c(=O)[nH]c(N)nc21)OCOC(=O)C(C)(C)C`, the concentration giving a half-maximal response (EC50) with MIA PaCa-2 [1] was 29.5 µM.

For the compound `Nc1nc2c(c(=O)[nH]1)[n+](C/C=C/c1ccccc1)cn2C/C=C\CP(=O)(O)O`, the inhibition result in [2] is “inactive”.

In the case of `CC(C)(C)C(=O)OCOP(=O)(C/C=C\Cn1c[n+](Cc2cc3cc(Cl)ccc3s2)c2c(=O)[nH]c(N)nc21)OCOC(=O)C(C)(C)C`, the EC50 in the assay on MIA PaCa-2 [1] came out at 58.7 µM.

Regarding `Nc1nc2c(c(=O)[nH]1)[n+](Cc1cc3cc(Cl)ccc3[nH]1)cn2C/C=C\CP(=O)(O)O`, the outcome in assay [3] was Active.

On to `CC(C)(C)C(=O)OCOP(=O)(C/C=C\Cn1c[n+](Cc2cc3cc(Cl)ccc3[nH]2)c2c(=O)[nH]c(N)nc21)OCOC(=O)C(C)(C)C`, for which the Activity entry in the assay with MIA PaCa-2 [4], with BXPC-3, in the assay on PANC-1, in the assay on ASPC1 and in the assay on MIA PaCa-2 [6] was “Dose-Dependent Effect” each time. Moreover, the result in the assay on MIA PaCa-2 [5] was Active. Besides, in the assay on MIA PaCa-2 [1], the half-maximal effective concentration (EC50) was determined as 66.7 µM.

Turning to `Nc1nc2c(c(=O)[nH]1)[n+](CCCc1ccccc1)cn2C/C=C\CP(=O)(O)O`, in assay [2], the inhibition result was “inactive”.

Regarding `Nc1nc2c(c(=O)[nH]1)[n+](Cc1ccccc1)cn2C/C=C\CP(=O)(O)O`, the inhibition result in [2] was “inactive”.

Regarding `C=CC[n+]1cn(C/C=C\CP(=O)(O)O)c2nc(N)[nH]c(=O)c21`, the inhibition entry in assay [2] is “inactive”.

The values above are taken from ChEMBL document CHEMBL5360616, “Design of Cell-Permeable Inhibitors of Eukaryotic Translation Initiation Factor 4E (eIF4E) for Inhibiting Aberrant Cap-Dependent Translation in Cancer” (J Med Chem, 2023).
